The source of these data is patent publication EP3421037A1, “RLS TREATMENT WITH INHIBITORS OF THE CEREBLON (CRBN) PROTEIN” (Klinikum rechts der Isar der Technischen Universität München, priority 2017, dated 2019).

This assay concerns RLS patient. As to the kind of experiment: Treatment of one RLS patient with thalidomide; RLS severity and sleep disturbance observed weekly with four questionnaires. It counts as in vivo, human. The note with it: for IRLSSG severity: 100 mg thalidomide daily plus two tablets pramipexole 0.18 mg, scale 0 to 40; for ESS sleepiness: Epworth Sleepiness Scale 0 to 24; for MOS sleep disturbance: range 0-100%; for RLS-6 score: scale 0 to 10. The method, then:
The patient had been diagnosed with RLS but had suffered from the disease since childhood. They had family history of RLS with their parent and two siblings being affected.
The patient was washed off the concurrent medication, with the exception of two tablets of 0.18 mg pramipexole, which was maintained throughout the study.
After the baseline period, they were prescribed 100 mg of the inhibitor of the cereblon (CRBN) thalidomide (i.e. 2-(2,6-dioxopiperidin-3-yl)-2,3-dihydro-1H-isoindole-1,3-dione) daily, which they continued taking for three weeks in addition to their two tables pramipexol 0,18 mg treatment.
Throughout the six-week period, the RLS severity and sleep disturbance of the patient were weekly observed with four different questionnaires: • 1. IRLSSG severity scale: This is the gold standard questionnaire to evaluate RLS severity both in clinical practice and in pharmaceutical studies. The scale is based on 10 questions answered by the patient, and final severity score ranges from 0 to 40. On the IRLSSG scale, 0 points corresponds to no RLS, 1-10 points corresponds to mild RLS, 11-20 points corresponds to moderate RLS, 21-30 points corresponds to severe RLS and 31-40 points corresponds to very severe RLS. • 2. RLS-6 scale. This is an alternative scale used to evaluate different aspects of RLS. The average score may be used to evaluate the overall severity of RLS. The scale ranges from 0 to 10, with 0 indicating no RLS and 10 being the most severe RLS severity score. • 3. Epworth Sleepiness Scale (ESS). This is a gold standard questionnaire used to evaluate daytime sleepiness in clinical practice and in pharmaceutical studies. The scale ranges from 0 to 24, where 0-5 corresponds to normal daytime sleepiness, 6-10 corresponds to higher normal daytime sleepiness, 11-12 corresponds to mild excessive daytime sleepiness, 13-15 corresponds to moderate excessive daytime sleepiness and 16-24 corresponds to severe daytime sleepiness. • 4. MOS Sleep Scale. This is a questionnaire used to evaluate sleep disturbance, sleep efficiency, sleep adequacy and other related parameters with different subscores derived from the answers. In this study, the sleep disturbance score was used. The range is 0-100%, 100% indicating the most severe sleep disturbance.

[1] abbreviates: week 4, 100 mg thalidomide daily plus pramipexole.
Where [2] appears, read: week 5, 100 mg thalidomide daily plus pramipexole.
[3] abbreviates: week 6, 100 mg thalidomide daily plus pramipexole.

`O=C1CCC(N2C(=O)c3ccccc3C2=O)C(=O)N1` (stereo not shown) [Thalidomide, 2-(2,6-dioxopiperidin-3-yl)-2,3-dihydro-1H-isoindole-1,3-dione]: the IRLSSG severity is, setting by setting: (week 4 (first treatment week)) 21 points; (week 5 (second treatment week)) 20 points; (week 6 (third treatment week)) 16 points. The ESS sleepiness under setting [1] is on record as 4, the ESS sleepiness under setting [2] was 7 and the ESS sleepiness under setting [3] is given as 3. The MOS sleep disturbance by setting is: under setting [1], 31.3%; under setting [2], 46.3%; under setting [3], 43.8%. Also, the RLS-6 score reads like this: under setting [1], 4.7; under setting [2], 2.7; under setting [3], 2. Also, where the note is “weeks 4-6, 100 mg thalidomide daily plus pramipexole, compared with baseline weeks 1-3”, the “treatment success of RLS on all four measured scores” value is recorded as “significantly benefitted”.
